Each compound was assayed against T1, IL-17A (Homo sapiens, UniProt Q16552) (assay: Inhibition of IL-17A induced IL-6 release from dermal fibroblast cell line (HDF cell line assay)). Conditions: human dermal fibroblasts stimulated with IL-17A (50 pM) + TNF-α (25 pM); IL-6 measured by HTRF; pIC50 = -log10[IC50], IC50 molar.
T1 sequence (Q16552 24-155): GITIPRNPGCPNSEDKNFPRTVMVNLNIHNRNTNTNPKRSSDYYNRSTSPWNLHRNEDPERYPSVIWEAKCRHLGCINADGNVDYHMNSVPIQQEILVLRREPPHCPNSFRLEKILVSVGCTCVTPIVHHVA
Type: cell-based
From the text: Inhibition of IL-17A Induced IL-6 Release from Dermal Fibroblast Cell Line
The purpose of this assay is to test the neutralising ability to IL-17 proteins, in a human primary cell system. Stimulation of normal human dermal fibroblasts (HDF) with IL-17 alone produces only a very weak signal but in combination with certain other cytokines, such as TNFα, a synergistic effect can be seen in the production of inflammatory cytokines, i.e. IL-6.
HDFs were stimulated with IL-17A (50 pM) in combination with TNF-α (25 pM). The resultant IL-6 response was then measured using a homogenous time-resolved FRET kit from Cisbio. The kit utilises two monoclonal antibodies, one labelled with Eu-Cryptate (Donor) and the second with d2 or XL665 (Acceptor). The intensity of the signal is proportional to the concentration of IL-6 present in the sample (Ratio is calculated by 665/620×104).
The ability of a compound to inhibit IL-17 induced IL-6 release from human dermal fibroblasts is measured in this assay.
HDF cells (Sigma #106-05n) were cultured in complete media (DMEM+10% FCS+2 mM L-glutamine) and maintained in a tissue culture flask using standard techniques. Cells were harvested from the tissue culture flask on the morning of the assay using TrypLE (Invitrogen #12605036). The TrypLE was neutralised using complete medium (45 mL) and the cells were centrifuged at 300×g for 3 minutes. The cells were re-suspended in complete media (5 mL) counted and adjusted to a concentration of 3.125×10^4 cells/mL before being added to the 384 well assay plate (Corning #3701) at 40 μL per well. The cells were left for a minimum of three hours, at 37° C./5% CO2, to adhere to the plate.
Compounds were serially diluted in DMSO before receiving an aqueous dilution into a 384 well dilution plate (Greiner #781281), where 5 μL from the titration plate was transferred to 45 μL of complete media and mixed to give a solution containing 10% DMSO.
Mixtures of TNFα and IL-17 cytokine were prepared in complete media to final concentrations of TNFα 25 pM/IL-17A 50 pM, then 30 μL of the solution was added to a 384 well reagent plate (Greiner #781281).
10 μL from the aqueous dilution plate was transferred to the reagent plate containing 30 μL of the diluted cytokines, to give a 2.5% DMSO solution. The compounds were incubated with the cytokine mixtures for 5 h at 37° C. After the incubation, 10 μL was transferred to the assay plate, to give a 0.5% DMSO solution, then incubated for 18-20 h at 37° C./5% CO2.
From the Cisbio IL-6 FRET kit (Cisbio #62IL6PEB) europium cryptate and Alexa 665 were diluted in reconstitution buffer and mixed 1:1, as per kit insert. To a white low volume 384 well plate (Greiner #784075) were added FRET reagents (10 μL), then supernatant (10 μL) was transferred from the assay plate to Greiner reagent plate. The mixture was incubated at room temperature for 3 h with gentle shaking (<400 rpm) before being read on a Synergy Neo 2 plate reader (Excitation: 330 nm; Emission: […]).

`Cc1nonc1C(=O)N[C@H](c1cn2ncc([C@@H]3C[C@](C)(O)CCN3C(=O)[C@@H]3CCC(F)(F)CO3)nc2n1)C1CCC(F)(F)CC1` (single isomer, unassigned) [Example 34] and `Cc1nonc1C(=O)N[C@H](c1cn2ncc([C@H]3C[C@](C)(O)CCN3C(=O)[C@@H]3CCC(F)(F)CO3)nc2n1)C1CCC(F)(F)CC1` (single isomer, unassigned) [Example 39] are within 1.5-fold of each other in IC50: 3.98 nM for the first, 5.01 nM for the second.

Going from `Cc1nonc1C(=O)N[C@H](c1cn2ncc([C@@H]3C[C@@](O)(C(F)(F)F)CCN3C(=O)[C@@H]3CCC(F)(F)CO3)nc2n1)C1CCC(F)(F)CC1` (single isomer, unassigned) [Example 18] to `Cc1nonc1C(=O)N[C@H](c1cn2ncc([C@H]3C[C@](O)(C(F)F)CCN3C(=O)[C@@H]3CCC(F)(F)CO3)nc2n1)C1CCC(F)(F)CC1` (single isomer, unassigned) [Example 23], the IC50 rises from 2.51 nM to 158 nM (63-fold).

First: Cc1nonc1C(=O)N[C@H](c1cn2ncc([C@@H]3C[C@](O)(C(F)F)CCN3C(=O)C34CC(F)(C3)C4)nc2n1)C1CCC(F)(F)CC1 (single isomer, unassigned) [Example 28]
Second: Cc1nonc1C(=O)N[C@H](c1cn2ncc([C@H]3C[C@@](C)(O)CCN3C(=O)C34CC(F)(C3)C4)nc2n1)C1CCC(F)(F)CC1 (single isomer, unassigned) [Example 37]
The IC50 of the first is 20-fold lower: 39.8 nM for the first, 794 nM for the second.

`CC(C)n1ncnc1C(=O)N[C@H](c1cn2ncc([C@@H]3C[C@@](O)(C(F)F)CCN3C(=O)[C@@H]3CCC(F)(F)CO3)nc2n1)C1CCC(F)(F)CC1` (single isomer, unassigned) [Example 48] and `CC(C)n1ncnc1C(=O)N[C@H](c1cn2ncc([C@@H]3C[C@](C)(O)CCN3C(=O)[C@@H]3CCC(F)(F)CO3)nc2n1)C1CCC(F)(F)CC1` (single isomer, unassigned) [Example 52] are within 1.5-fold of each other in IC50: 6.31 nM for the first, 7.94 nM for the second.

Compared with `Cc1nonc1C(=O)N[C@H](c1cn2ncc([C@@H]3COCCN3C(=O)[C@@H]3CCC(F)(F)CO3)nc2n1)[C@H]1CC[C@H](C(F)(F)F)CC1` (single isomer, unassigned) [Example 24], `Cc1nonc1C(=O)NC(c1cn2ncc(C3COCCN3C(=O)C3CCC(F)(F)CO3)nc2n1)C1CCC(F)(F)CC1` (single isomer, unassigned) [Example 8] is 13-fold higher in IC50: 10 nM for the first, 126 nM for the second. The first is the more potent here.

First: CC(C)n1ncnc1C(=O)N[C@H](c1cn2ncc([C@@H]3C[C@@](O)(C(F)F)CCN3C(=O)[C@@H]3CCC(F)(F)CO3)nc2n1)C1CCC(F)(F)CC1 (single isomer, unassigned) [Example 49]
Second: Cn1nccc1C(=O)N[C@H](c1cn2ncc([C@@H]3C[C@@](O)(C(F)F)CCN3C(=O)[C@@H]3CCC(F)(F)CO3)nc2n1)C1CCC(F)(F)CC1 (single isomer, unassigned) [Example 46]
The IC50 of the first is 50-fold higher: 631 nM for the first, 12.6 nM for the second.

First: O=C([C@@H]1CCC(F)(F)CO1)N1CC[C@](O)(C(F)(F)F)C[C@H]1c1cnn2cc([C@@H](NC(=O)C3(F)CC3)C3CCC(F)(F)CC3)nc2n1 (single isomer, unassigned) [Example 20]
Second: O=C(N[C@H](c1cn2ncc([C@@H]3C[C@@](O)(C(F)(F)F)CCN3C(=O)C34CC(F)(C3)C4)nc2n1)C1CCC(F)(F)CC1)C1(F)CC1 (single isomer, unassigned) [Example 11]
The IC50 of the first is 3.2-fold lower: 15.8 nM for the first, 50.1 nM for the second.

Compared with `Cc1nonc1C(=O)N[C@H](c1cn2ncc([C@@H]3C[C@@](O)(C(F)(F)F)CCN3C(=O)C34CC(F)(C3)C4)nc2n1)C1CCC(F)(F)CC1` (single isomer, unassigned) [Example 9], `Cc1nonc1C(=O)N[C@H](c1cn2ncc([C@H]3C[C@@](O)(C(F)(F)F)CCN3C(=O)C34CC(F)(C3)C4)nc2n1)C1CCC(F)(F)CC1` (single isomer, unassigned) [Example 33] is 20-fold higher in IC50: 6.31 nM for the first, 126 nM for the second.

First: Cc1nonc1C(=O)N[C@H](c1cn2ncc([C@@H]3C[C@H](O)CCN3C(=O)[C@@H]3CCC(F)(F)CO3)nc2n1)C1CCC(F)(F)CC1 (single isomer, unassigned) [Example 42]
Second: Cc1nonc1C(=O)N[C@H](c1cn2ncc([C@H]3C[C@@H](O)CCN3C(=O)[C@@H]3CCC(F)(F)CO3)nc2n1)C1CCC(F)(F)CC1 (single isomer, unassigned) [Example 43]
The IC50 of the first is 2-fold lower: 12.6 nM for the first, 25.1 nM for the second.

Compared with `Cc1nonc1C(=O)N[C@H](c1cn2ncc([C@@H]3COCCN3C(=O)C34CC(F)(C3)C4)nc2n1)C1CCC(F)(F)CC1` (single isomer, unassigned) [Example 3], `Cc1nonc1C(=O)N[C@H](c1cn2ncc([C@@H]3COCCN3C(=O)[C@@H]3CCC(F)(F)CO3)nc2n1)C1CCC(F)(F)CC1` (single isomer, unassigned) [Example 7] is 13-fold lower in IC50: 79.4 nM for the first, 6.31 nM for the second. The second is the more potent here.

Going from `Cc1nonc1C(=O)N[C@H](c1cn2ncc([C@@H]3COCCN3C(=O)[C@@H]3CCC(F)(F)CO3)nc2n1)[C@H]1CC[C@H](C(F)(F)F)CC1` (single isomer, unassigned) [Example 25] to `Cc1nonc1C(=O)N[C@H](c1cn2ncc([C@H]3COCCN3C(=O)[C@@H]3CCC(F)(F)CO3)nc2n1)C(C1CC1)C1CC1` (single isomer, unassigned) [Example 6], the IC50 falls from 316 nM to 100 nM (3.2-fold).

`CC(C)n1nccc1C(=O)N[C@H](c1cn2ncc(C3(C(=O)NCC(C)(F)F)CCC(F)(F)CC3)nc2n1)C1CCC(F)(F)CC1` [Example 16, N—[(S)-(4,4-Difluorocyclohexyl){3-[1-(2,2-difluoropropylcarbamoyl)-4,4-difluoro-cyclohexyl]imidazo[1,2-b][1,2,4]triazin-6-yl}methyl]-2-isopropylpyrazole-3-carboxamide] and `Cc1nonc1C(=O)N[C@H](c1cn2ncc([C@@H]3C[C@](O)(C(F)F)CCN3C(=O)[C@@H]3CCC(F)(F)CO3)nc2n1)C1CCC(F)(F)CC1` (single isomer, unassigned) [Example 30] are the same in IC50: 12.6 nM for the first, 12.6 nM for the second.

For `Cc1nonc1C(=O)N[C@H](c1cn2ncc([C@H]3C[C@@](O)(C(F)F)CCN3C(=O)[C@@H]3CCC(F)(F)CO3)nc2n1)C1CCC(F)(F)CC1` (single isomer, unassigned) [Example 31], the IC50 was 15.8 nM.

From patent US20240294534A1, “IMIDAZOTRIAZINE DERIVATIVES AS IL-17 MODULATORS” (UCB BIOPHARMA SRL, priority 2021, published 2024)
